The structures appear in SMILES notation.

One assay concerns desaturase DES2. The assay is described as follows: keratinocyte differentiation, real-time RT-PCR of DES2 transcripts. The format is cell-based, human. The settings on record: NHK, 48 hours. The method, then:
(§1) Normal human keratinocytes (NHK) proliferate and differentiate in vitro, forming stratified layers which mimic the basal organisation of the skin. Extracellular calcium concentrations in excess of 0.1 mM initiate a cascade of genome and non-genome events which take the keratinocytes from a proliferative phase towards a differentiation phase. Keratinocyte differentiation can then be evaluated by studying the expression of several markers such as keratins 1 and 10, transglutaminase 1, desaturase DES2, involucrine, FATP4 and ABCG1 transporters. We therefore evaluated the effect of certain hydroxyalcene carboxylic acids in an in vitro culture model.
(§2) Normal human keratinocytes are isolated from skin explants. They are cultured in KSFM medium (Gibco) with a low calcium content (0.1 mM) containing 25 μg/ml of BPE (bovine pituitary extract) and […] of EGF (epithelium growth factor). 24 hours after culturing, differentiation is triggered by the addition of calcium (final concentration 1.2 mM). The active ingredients are added or not at the same time as calcium at concentrations of 100 and 1 μg/ml in order to determine whether or not they have a potentialising effect on differentiation. Cells were then analysed 48 hours after the addition of calcium and these products.
(§3) Total RNA was extracted under cold conditions from keratinocytes.
(§4) After reverse transcription of mRNA into cDNA, PCRs were made up in 96 well plates (iCycler quantitative PCR apparatus, BioRad). Expression of transcripts of transglutaminase, desaturase (DES2), ABCG1 and FATP4 were standardized with respect to the expression of reference genes (GAPDH, UBC, HPRT).

For assay [1], the system named is membrane lipids, fibroblast line L929. The assay is described as follows: TBARS test, lipid peroxidation after H2O2/Fe2+/Fe3+. The class given is cell-based, murin. The conditions noted are these: 0.02 ng/ml, pretreated 16 hours. The source says: In order to evaluate membrane changes, we measured lipid peroxidation by in vitro assay of complexes between the products of lipid oxidation and thiobarbituric acid. These complexes are called TBARS (thiobarbituric acid reactive substances) and give the test its name: TBARS Test.
In order to mimic chemical oxidative stress, we treated a fibroblast line (L929) with a complex consisting of hydrogen peroxide (H2O2) and iron (Fe^2+/Fe^3+) thus reconstituting the Fenton reaction which is the source of oxygenated free radicals and particularly the hydroxyl radical (OH°) (D. A Vessey et al. 1992): H2O2+Fe^2+→OH°+OH^−+Fe^3+
The products were evaluated on a murin fibroblast line L929. Cells were pretreated with different concentrations of the product for 16 hours and were then stimulated with the H2O2/Fe^2+/Fe^3+ complex (200 μM−1 mM) for 1 hour. • Stock solutions: 100 mg/ml ethanol, 4° C. • Final solutions: 0.02 ng/ml.
Peroxidation of membrane lipids was analysed by measuring TBARS (Protocol ref. PLN°2, according to Morliere et al, 1991).
[…]. TBARS assays are therefore expressed in pmole/μg of protein. Proteins and TBARS are assayed in the intracellular medium.
Using the TBARS calculation in pmole/μg protein, we calculated the protective efficacy of various products against the oxidation of lipid membranes.
Four separate experiments were carried out. Several compounds were evaluated in the course of these experiments (the test only allows 10 molecules to be evaluated at one time). The compounds were evaluated several times and were chosen as a function of the results obtained in another test which also measured anti-radical activity (assay test for activated oxygen species).
The model used in this experiment (Fenton reaction) triggers considerable lipid peroxidation of the L929 fibroblasts. This massive release of the hydroxyl radical OH° thus generates oxidative stress in the cells, particularly in the membranes. However, in this type of oxidative reaction, the products resulting from lipid peroxidation are internalized in the cells and TBARS are therefore assayed in the intracellular medium.

For another assay, the system named is FATP4. The assay is described as follows: keratinocyte differentiation, real-time RT-PCR of FATP4 transcripts. The class given is cell-based, human. The settings on record: NHK, 48 hours. The method, then: as §1, §2, §3, §4
The test system of the next assay is ABCG1. The assay is described as follows: keratinocyte differentiation, real-time RT-PCR of ABCG1 transcripts. The format is cell-based, human. The settings on record: NHK, 48 hours. The method, then: as §1, §2, §3, §4
For assay [2], the system named is intracellular AOSs, fibroblast line L929. The assay is described as follows: in vitro assay of intracellular AOSs (H2DCF-DA probe) after H2O2/iron oxidative stress. The conditions noted are these: pre-incubation 3 h, L929. The class given is cell-based, murin. An excerpt: We set up an in vitro study model of oxidative stress induced by H2O2/iron as H2O2 generates huge amounts of intracellular AOSs as a result of a chain reaction triggered by oxidation of membrane lipids.
This technique is based on the use of a fluorescent probe, 6-carboxy-2′,7′-dichlorodihydro fluorescein diacetate, di (acetoxymethyl ester) (H2DCF-DA) which once it penetrates into the cell is deacetylated by intracellular esterases and thus forms H2DCF. This product is oxidized by intracellular AOSs into a highly fluorescent compound: 2′,7′-dichlorofluorescein (DCF) (Suematsu M et al., 1996, Free Radicals Practical Approach, Punchard ed. P 83-99).
The materials and methods used for in vitro assay of intracellular AOSs are given below. • a) Cell tool • Cutaneous murin fibroblast cell line L929. • b) Materials • 96 well flat based microplate. • Cytofluor II cytofluorameter: Ref. PERCEPTIVE BIOSYSTEMS. • c) Reagents • Cell culture reagents: • Dulbecco's Modified Eagle Medium as the culture medium (DMEM) • Foetal calf serum • Phosphate buffer PBS pH 7.4 • Trypsin EDTA (1X) Fluorescent probe • 6-carboxy-2′,7′-dichlorodihydrofluorescein diacetate, di(acetoxymethyl ester) (PM.675,43) Cell stimulation products • Hydrogen peroxide (H2O2) 3% Ref. GIFRER (Gifrer Barbezat Laboratory) • Ferrous ammonium sulphate (Fe^2+) • Ferric ammonium sulphate (Fe^3+) • d) Products tested:
For the evaluation of unsaturated fatty hydroxy acid derivatives, the dilutions are prepared in freshly prepared culture medium for a concentration range of 0.02, 0.2, 2 and 20 ng/ml. • e) Protocol. Cell culturing.
Cells from the fibroblast line L929 were cultured in 96-well flat base microplates in 100 μl of DMEM supplemented with 10% foetal calf serum. These were incubated overnight at 37° C. in a humid atmosphere at 5% CO2. The blank plate without cells was evaluated using 6 wells.
Dilutions of the products to be tested and reference molecule were made up in culture medium without foetal calf serum then deposited in 7 wells at a rate of 100 μl per well.
Cells were then incubated for 3 hours at 37° C. in a humid atmosphere at 5% CO2.
Cells were rinsed in PBS 1X at a rate of 100 μl per well. They were then incubated for 30 minutes at 37° C. in a humid atmosphere at 5% CO2 with 50 μl of the H2DCF-DA probe at 5 μM.
After 30 minutes of contact with the probe alone, cells were incubated for 30 minutes at 37° C. in a humid atmosphere at 5% CO2 with the addition of 25 μl of H2O2 at 800 μM and 25 μl of ferrous iron and ferric iron solution at 8 mM in order to obtain final concentrations of 200 μM of H2O2 and 2 mM of ferrous iron and ferric iron.
Cells were then rinsed with PBS 1X at a rate of 100 μl per well then incubated for 30 minutes at 37° C. in a humid atmosphere at 5% CO2 with 100 μl of PBS 1X.
This incubation for 1 h 30 minutes at 37° C. allows intracellular esterases to deacetylate the probe into H2DCF which can be oxidized by the intracellular AOSs into DCF: a fluorescent compound whose formation is proportional to the quantity of intracellular AOSs.
The intensity of fluorescence is read on a cytofluorimeter at λexcitation=485 nm and λemission=530 nm. This reflects the amount of intracellular AOS produced.
The ratio below makes it possible to calculate the % protection against the production of intracellular AOSs for each product concentration tested (because the intensity of fluorescence or IF reflects the release of intracellular AOSs)
• Pre-incubation: 3 h • Number of tests=3 for all compounds. • Number of tests=18 for vit. E

A further assay concerns transglutaminase 1 (TG1). The assay is described as follows: keratinocyte differentiation, real-time RT-PCR of transglutaminase 1 transcripts. The settings on record: NHK, 48 hours. The format is cell-based, human. The method, then: as §1, §2, §3, §4

Regarding `O=C(O)C(F)=CCCCCO` (mixture of isomers) [n=3, R=H, Rn=H, R1=F], the figures for the “Induction Factor vs Control (CaCl2 1.2 mM) DES2” value with desaturase DES2 (1 μg/ml) and in the assay with desaturase DES2 (100 μg/ml) were 1.7 and 1.9, respectively. In addition, the “% membrane lipid protection, Mean” value in assay [1] is given as 38.14%. Also, the “Induction Factor vs Control (CaCl2 1.2 mM) FATP4” value in the assay with FATP4 (1 μg/ml) and in the assay with FATP4 (100 μg/ml) was 1.2 in each case. For the same compound, the “Induction Factor vs Control (CaCl2 1.2 mM) ABCG1” value in the assay with ABCG1 (1 μg/ml) is reported as 1.5; in the assay with ABCG1 (100 μg/ml), 1.2. The “Percentage inhibition of the intracellular production of AOS” value was 3% in assay [2] (0.02 ng/ml), −3% in assay [2] (0.2 ng/ml), −32% in assay [2] (2 ng/ml) and −51% in assay [2] (20 ng/ml). Moreover, the figures for the “Induction Factor vs Control (CaCl2 1.2 mM) TG1” value in the assay with transglutaminase 1 (TG1) (1 μg/ml) and with transglutaminase 1 (TG1) (100 μg/ml) were 1.5 and 0.9, respectively.

For the compound `O=C(O)C(F)=CCCCCCCCCCCCCCCCO` (mixture of isomers) [n=14, R=H, Rn=H, R1=F], the “Induction Factor vs Control (CaCl2 1.2 mM) DES2” value with desaturase DES2 (1 μg/ml) amounted to 2.8. In assay [1], the “% membrane lipid protection, Mean” value came to 35.30%. For the same compound, the “Induction Factor vs Control (CaCl2 1.2 mM) FATP4” value in the assay with FATP4 (1 μg/ml) is reported as 1.0. In addition, the “Induction Factor vs Control (CaCl2 1.2 mM) ABCG1” value in the assay with ABCG1 (1 μg/ml) is on record as 4.0. The “Percentage inhibition of the intracellular production of AOS” value in assay [2] (0.02 ng/ml) is 6%; in assay [2] (0.2 ng/ml), −17%; in assay [2] (2 ng/ml), −26%; in assay [2] (20 ng/ml) it was −42%. The “Induction Factor vs Control (CaCl2 1.2 mM) TG1” value with transglutaminase 1 (TG1) (1 μg/ml) is listed as 1.7.

The values above are taken from patent US8158811B2, “Unsaturated fatty hydroxy acid derivatives and the dermocosmetologic use thereof” (Pierre Fabre Dermo-Cosmetique, priority 2005, dated 2012).
